Results: the METLIN SMRT retention time set (Domingo-Almenara et al. 2019)

Test: gradient 5% acetonitrile 3 min, to 50% in 2 min, to 85% in 15 min, held 3 min, 100 µL/min
Details: column: Zorbax Extend-C18 2.1 x 50 mm; eluents: water / acetonitrile, 0.1% formic acid
How it was run: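 Pure standards were run in mixtures of ~100 molecules by HPLC coupled to a quadrupole time-of-flight mass spectrometer. The column was a Zorbax Extend-C18 (2.1 × 50 mm, 1.8 μm) at 100 μL/min, with water and acetonitrile each containing 0.1% formic acid, in positive and negative ionization mode. Dead and dwell volumes were 40 μL and 900 μL. Retention time was taken from computationally picked adduct peaks, each manually inspected, with data collected over 3 months.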

CC(=O)N1CCc2cc(N3CC(C(=O)Nc4cc(F)cc(F)c4)CC3=O)ccc21 (centres undefined)
RP-LC retention time: 772 s

O=C(Nc1ccsc1-c1nnc(C2CC2)o1)c1cccs1
RP-LC retention time: 1160 s

CN(Cc1ccccc1)C(=O)Cn1c(=O)c2cnc(-c3ccc(Cl)cc3)nc2n(C)c1=O
RP-LC retention time: 1120 s

O=C(O)c1nnn(-c2cccc(F)c2)c1-c1ccccn1
RP-LC retention time: 671 s

Cc1nnc(-c2cc(C)n(CC(=O)Nc3ccc(C)c(Cl)c3)c2C)o1
RP-LC retention time: 852 s

O=S(=O)(c1ccc2nc(N3CCN(c4ccc(F)cc4)CC3)ccc2c1)N1CCCCC1
RP-LC retention time: 1050 s

CCc1cc(=O)n(CC(=O)Nc2ccccc2F)c(N2CCOCC2)n1
RP-LC retention time: 711 s

Cc1ccc(C2CCCN2C(=O)c2nc3nc(C)cc(C(F)F)n3n2)cc1 (centres undefined)
RP-LC retention time: 835 s

Cc1nc(NCc2ccco2)sc1C(=O)Nc1cccc(C(F)(F)F)c1
RP-LC retention time: 887 s

Cc1ccc(CNC(=O)C2CCN(S(=O)(=O)c3cc(C(=O)N4CCCC4)n(C)c3)CC2)o1
RP-LC retention time: 699 s

Cc1nc([C@@H]2CN(C(=O)c3cc(C4CC4)[nH]n3)C[C@H]2C(N)=O)n[nH]1
RP-LC retention time: 540 s

Cc1cc(=O)n(CC(=O)NCc2ccccc2Br)c(N2CCc3ccccc3C2)n1
RP-LC retention time: 818 s

C=CCN1C(=O)CC(Nc2ccc(CC)cc2)C1=O (centres undefined)
RP-LC retention time: 846 s

COc1ccc(CCc2nc3nccc(-c4cccnc4)n3n2)cc1
RP-LC retention time: 720 s

Cc1ccc(NC(=O)N2CCN(CCn3c(C(F)(F)F)nc4cccnc43)CC2)cc1
RP-LC retention time: 648 s

Cc1cc(C)nc(N2CCN(c3cc(C)nc4c(-c5ccc(F)cc5)cnn34)CC2)n1
RP-LC retention time: 1190 s

CC(C)Cc1ccc(S(=O)(=O)N2CCN(c3ccccn3)CC2)cc1
RP-LC retention time: 840 s

Cc1cc(C2CCCN2C(=O)Nc2cccc(Cl)c2C)on1 (centres undefined)
RP-LC retention time: 794 s

CN(C)CC1(O)CCC2(CCN(C(=O)c3cccn3C)CC2)CC1
RP-LC retention time: 577 s

CCOc1ccc(-c2nc(CNC(=O)Nc3cc(OC)ccc3OC)c(C)o2)cc1
RP-LC retention time: 963 s

Cc1c(-c2ccnc(N3CCN(Cc4ccccc4)CC3)n2)cnc2ncnn12
RP-LC retention time: 588 s

CCCNC(=O)C1CCN(c2ccc(SCC(=O)NCc3cc(F)cc(F)c3)nn2)CC1
RP-LC retention time: 626 s

Cc1cc2nc(C(F)(F)F)c(=O)n(C(C)C(=O)NCCCN3CCCC3)c2cc1C (centres undefined)
RP-LC retention time: 714 s

Cc1ccc(C)c(NS(=O)(=O)c2ccc3c(c2)C(=O)N(C)c2ncccc2O3)c1
RP-LC retention time: 970 s

COc1ccc(NC(=O)c2noc3c2CCCCC3)c(OC)c1
RP-LC retention time: 1080 s

CN(C)c1cc2c(Nc3ccc4c(cnn4Cc4ccccc4)c3)ncnc2cn1
RP-LC retention time: 820 s

CCC(C)N(C)C(=O)c1cc2ccccc2c(-c2ccccc2Cl)n1 (centres undefined)
RP-LC retention time: 1110 s

O=C1NCCCCCCN(C(=O)c2cnccn2)[C@H]2CCC[C@@H]12
RP-LC retention time: 632 s

CCOCCCNC(=O)C1CCCN(c2ncc(-c3cccc(F)c3)cn2)C1 (centres undefined)
RP-LC retention time: 902 s

CCC(=O)N(CCOC)CC(=O)N1CCc2sccc2C1COc1ccccc1F (centres undefined)
RP-LC retention time: 831 s

COc1cc2nc(C(=O)N3CCCCC3)cc(Nc3cccc(SC)c3)c2cc1OC
RP-LC retention time: 723 s

COc1cccc(-c2ccnc3nc(C4CCC4)nn23)c1
RP-LC retention time: 868 s

CCc1nncn1C1CCN(S(=O)(=O)c2ccccc2C)CC1
RP-LC retention time: 686 s

CC(C)NC(=O)c1ccc2c(c1)CC(=O)N2C
RP-LC retention time: 616 s

O=C(NCc1cc(F)cc(F)c1)C1CCCN(c2cnc3nccnc3c2)C1 (centres undefined)
RP-LC retention time: 707 s

Cc1cc(C)n(-c2ccc(C(=O)NCc3cc(F)cc(F)c3)cn2)n1
RP-LC retention time: 943 s

O=S(=O)(c1ccc(Br)cc1)N1CCCC(COCc2ccccc2)C1 (centres undefined)
RP-LC retention time: 1220 s

CC1CCCN(CC2CCN(S(=O)(=O)Cc3c(F)cccc3Cl)CC2)C1 (centres undefined)
RP-LC retention time: 685 s

COc1ccc(Nc2cc(Cl)ccc2C(=O)O)cn1
RP-LC retention time: 978 s

CCCN1CCN(C(=O)Cn2c3ccccc3c3cnn(C)c(=O)c32)CC1
RP-LC retention time: 590 s

CCn1cc(CCNC(=O)Nc2ccccc2)c2cccnc21
RP-LC retention time: 693 s

O=C([C@@H]1C[C@H](Oc2cccnc2)CN1C(=O)c1n[nH]c(=O)c2ccccc12)N1CCCC1
RP-LC retention time: 564 s

O=C(NC1CC1)c1nnc(-c2ccc(S(=O)(=O)N3CCCC3)cc2)o1
RP-LC retention time: 730 s

O=C(C1CCC1)N1CCCC1c1nc(C2CCOCC2)no1 (centres undefined)
RP-LC retention time: 624 s

O=C(C1CCCO1)N1CCC(CCOc2ccccc2)CC1 (centres undefined)
RP-LC retention time: 844 s

O=C(Cn1nc2nc(N3CCCC3)ccn2c1=O)Nc1ccc2c(c1)OCO2
RP-LC retention time: 647 s

Cc1ccc(S(=O)(=O)N2CCCN(c3ccc(=O)n(-c4ccc(F)cc4)n3)CC2)cc1C
RP-LC retention time: 937 s

Cc1noc(-c2ccc(OC3CN(C(=O)Nc4ccccc4)C3)cc2)n1
RP-LC retention time: 737 s

Cc1ccc(-c2nnc(-c3cccnc3N3CCN(C(=O)c4ccc(Br)o4)CC3)o2)cc1
RP-LC retention time: 1020 s

c1ccc(-c2nc(-c3ccccn3)nc(-c3ccccn3)n2)nc1
RP-LC retention time: 644 s

COCc1cc(=O)n(CC(=O)NCc2ccc(F)c(Cl)c2)c(N)n1
RP-LC retention time: 625 s

CCc1ccc(NS(=O)(=O)c2ccc3c(c2)C(=O)N(CC)c2ncccc2O3)cc1
RP-LC retention time: 1020 s

O=C(CC1C=Cc2ccccc2N1C(=O)c1ccccc1)c1ccccc1 (centres undefined)
RP-LC retention time: 1270 s

O=c1ccc(N2CCCC(NS(=O)(=O)c3ccc(F)c(F)c3)C2)nn1CC1CC1 (centres undefined)
RP-LC retention time: 851 s

O=C(CN1C(=O)CCC1=O)N1CCC(c2noc(-c3cnccn3)n2)C1 (centres undefined)
RP-LC retention time: 591 s

O=C(NCCc1cccs1)C1CCCN(c2ncnc3c2oc2ccccc23)C1 (centres undefined)
RP-LC retention time: 764 s

CCCc1cc(N2CCN(C(=O)c3ccco3)CC2)nc2nnc(CC)n12
RP-LC retention time: 617 s

CC(C)S(=O)(=O)N1CC(c2nc(CCOCc3ccccc3)no2)C1
RP-LC retention time: 914 s

COc1ccc(-c2nnc(N3CCC(C(=O)NCCN4CCCC4)CC3)o2)cc1
RP-LC retention time: 590 s

COCCCNC(=O)Cc1csc(SCc2ccc(Br)cc2)n1
RP-LC retention time: 830 s

CC(C)CC(=O)N1C[C@H](c2nc(-c3cccnc3)no2)[C@@H](C)C1
RP-LC retention time: 751 s

CSc1ncccc1-c1nc(-c2ccc3oc(C)nc3c2)no1
RP-LC retention time: 1100 s

Cc1ccc(S(=O)(=O)Nc2ccc(-c3cn4cccnc4n3)cc2)cc1[N+](=O)[O-]
RP-LC retention time: 713 s

Cn1c(=O)c(-c2noc(C(=O)N3CCN(c4ccccn4)CC3)n2)nn(-c2ccccc2)c1=O
RP-LC retention time: 637 s

O=c1c2scc(-c3ccc(F)cc3)c2ncn1Cc1ccc(Br)cc1
RP-LC retention time: 1180 s

Cc1ccc(S(=O)(=O)N2CCC(CCNC(=O)NC3CCCCC3)CC2)cc1
RP-LC retention time: 905 s

O=C(NCc1ccc2c(c1)OCO2)c1cnn2c3c(cnc12)CCCCCC3
RP-LC retention time: 1000 s

CC(=O)N1CCc2cc(S(=O)(=O)C(C)CC(=O)N3CCN(c4ccccc4)CC3)ccc21 (centres undefined)
RP-LC retention time: 787 s

O=C(CCc1nnn2c1CN(C(=O)c1ccccc1F)CC2)NC1CC1
RP-LC retention time: 615 s

c1ccc(CNc2cc(-n3cccn3)ncn2)cc1
RP-LC retention time: 832 s

Cc1ccc2c(=O)c(C(=O)N3CCCC3)cn(CC(=O)Nc3ccc(F)cc3F)c2n1
RP-LC retention time: 692 s

O=C(CN1C(=O)C(C(=O)N2CCCCC2)Sc2ccccc21)N1CCN(c2ccccn2)CC1 (centres undefined)
RP-LC retention time: 634 s

CC(C)n1cnc(S(=O)(=O)N2CCC(C(=O)Nc3ccc4c(c3)OCO4)CC2)c1
RP-LC retention time: 722 s

NC[C@@](O)(c1ccc(Cl)cc1)c1ccc(-c2cn[nH]c2)cc1
RP-LC retention time: 678 s

CC1CCC2(CC1)NC(=O)N(CC(=O)NCc1ccc3c(c1)OCO3)C2=O (centres undefined)
RP-LC retention time: 749 s

CCn1nc(C)c(-c2cc(C(=O)NCC3Cn4cccc4C(=O)N3C)no2)c1C (centres undefined)
RP-LC retention time: 679 s

COc1ccc(N2CCN(CC(O)c3cccc(OC)c3)CC2)cc1 (centres undefined)
RP-LC retention time: 657 s

O=C(c1cc(F)ccc1F)N1CCC2(CC1)N=C(c1ccc(Cl)cc1)NO2
RP-LC retention time: 902 s

CCOC(=O)C1C(=O)C=C(c2cccc(NS(C)(=O)=O)c2)CC1c1cccs1 (centres undefined)
RP-LC retention time: 822 s

CCCS(=O)(=O)N1CC(=O)N(c2ccc(F)cc2C)C(C)(C(=O)NC2CCCCCC2)C1 (centres undefined)
RP-LC retention time: 988 s

CC(C)(C)OC(=O)Nc1ccc(-c2cc(C(=O)NCCCCCCC(=O)NO)no2)cc1
RP-LC retention time: 739 s

CCC(C)c1ccc(NC(=O)C2CCN(C(=O)C(C)(C)C)CC2)cc1 (centres undefined)
RP-LC retention time: 983 s

Cc1nc2ccccc2c(=O)n1Cc1noc(-c2cccc(Cl)c2)n1
RP-LC retention time: 913 s

Cc1oc(C2CCN(C(=O)c3cc(F)ccc3F)CC2)nc1C(=O)N1CCCC1
RP-LC retention time: 769 s

O=C(C1CCCO1)N1CC2CN(S(=O)(=O)c3cccc(F)c3)CC(C1)O2 (centres undefined)
RP-LC retention time: 676 s

CCN1CCN(CCNC(=O)Cc2cccn2-c2ccc(Cl)cc2)CC1
RP-LC retention time: 612 s

Cc1cc(C)cc(NC(=O)C2CCN(S(=O)(=O)c3ccc(-c4noc(C5CC5)n4)cc3)CC2)c1
RP-LC retention time: 838 s

CCN(CC)CCNC(=O)c1cn(C)nc1S(=O)(=O)N1CCN(c2ccc(Cl)cc2)CC1
RP-LC retention time: 707 s

N#Cc1ccc(C(=O)Nc2cnn(-c3ncc(N4CCCC4)cn3)c2)cc1
RP-LC retention time: 798 s
